Assay results published in patent publication US9597312B2, “Treatment of cognitive disorders associated with abnormal dendritic spines using PKC activators” (Cognitive Research Enterprises, Inc., priority 2010, dated 2017).

Columns and labels:
PKC [1] = conditions: cited from earlier work
FMR1 mice = assay: Spatial water maze in Fragile X (FMR1) mice; type: in vivo; conditions: 20 μg/m^2 tail i.v., 2 doses/week for 13 weeks, vs FMR1 with vehicle p<0.001
Text: Two types of mice (male, The Jackson Laboratories, ME, USA; 9-10 per group) were used in the study: FVB.129P2-Fmrl^tmlCgr/J (FMR1) and FVB.129P2-Pde6b^+ Tyr^c-ch/AntJ (as the control groups).
(§1) Non-treated groups received the same volume of vehicle at the same frequency of administration as the treated groups.
The first training of spatial water maze task began on the 10th day after the last dose. Mice were trained for 8 days (2 trials/day) to find a hidden platform, centered in one of the quadrants and submerged about 2 cm below the water surface. At the start of all trials, mice were placed individually in the water facing the maze wall, using different starting positions each trial, and allowed to swim until they found the platform, where they remained for 20 s, before being returned to their home cages. […] The swim path was recorded with a video-tracking system, which computed latency to the platform, swim distance, and percentage of time spent in the quadrants. After the training trials, a probe trial (a quadrant test or retention trial) was performed with the platform removed to assess memory retention for its location by the distance the mouse moved in the quadrants. The video-tracking system tracked the animal's movements in each quadrant during a period of one minute. […]

synaptophysin = assay: Synaptophysin immunohistochemistry in hippocampus of aged rats; type: in vivo
Experimental: Under anesthesia (choral hydrate; Sigma-Aldrich; 400 mg/kg body weight, i.p.), rats were perfused through the heart with PBS by gravity to wash out the blood and then lightly fixed with 150 ml of 4% paraformaldehyde in PBS at room temperature, instead of a cold fixative, because hypothermia can reduce the number of dendritic spines. Brains were removed and postfixed for 10 min. Thereafter, hippocampi were isolated from the right brain hemispheres, and dorsal hippocampi were sectioned with a vibratome at 400 μm for DiI staining and immunohistochemistry.
Hippocampal slices at 400 μm thickness were further immersed in the fixative (4% paraformaldehyde in PBS) for 30 min at room temperature and then sectioned at 35 μm thickness by using a vibratome. Sections were then processed for immunohistochemistry as described in Hongpaisan et al., J Neurosci., 2004, 24:10878-10887. […]
All data were quantified by using the ImageJ program. The appearance of spinophilin and synaptophysin profiles in a 63-μm×63-μm image taken from the superficial part of the stratum radiatum were analyzed with the photographic negative after background subtraction. The total number of spinophilin and synaptophysin granules were then counted by using ImageJ. […] HuC/D immunostaining was quantified by measuring fluorescence intensity in the proximal dendrite portion of each individual CA1 pyramidal neuron. […]

hippocampal CA1 neurons = assay: DiI staining and confocal microscopy of dendritic spines of hippocampal CA1 neurons in Fragile X mice; type: in vivo; conditions: Fragile X transgenic mice
Experimental: as §1
The tips of glass electrodes, prepared as used for electrophysiology, were immersed in 5% (wt/vol) 1, 1′-dioctadecyl-3,3,3′,3′-tetramathyl-indocarbocyanineperchlorate (DiI, Molecular Probes/Invitrogen) in dichloromethane (Sigma-Aldrich) and air-dried at room temperature for 30 min. The tips of DiI-coated electrodes were inserted, broken, and left in the strata oriens of the CA1 area of hippocampal sections at […] thickness. After maintenance in PBS at 4° C. overnight to allow DiI to diffuse in the plasma membrane of the CA1 neurons, hippocampal sections were then resectioned to 35 μm thickness and mounted on glass slides, using PBS as the mounting medium. Dendritic spines stained with DiI in the strata radiatum were collected using a Zeiss Axiovert 200M microscope equipped with 510 confocal scanning system at 568 nm/>510 nm (excitation/emission). A stack of confocal images (taken every 0.4 μm) was collected to obtain all dendritic spines of an individual dendritic shaft. During analysis, a stack of images was retrieved with the ImageJ program (National Institutes of Health). Individual spines identified on one image were also verified on adjacent stacked images to approximate the three-dimensional structure of this spine. Those spines, which had head diameters more than three times larger than the diameter of their necks (FIGS. 1 d and e), were identified as mushroom spines. Approximately four to six stacked image sets were obtained from each animal. All image sets were pooled and coded; therefore, images were identified with unknown animal number and unknown treatment (double-blind protocol).
(§2) The mice were then sacrificed and hippocampal sections were removed and treated as described in Example 2.

hippocampal CA1 area = assay: Immunohistochemistry of synaptic markers (GAP-43, neurogranin, synaptophysin) in hippocampal CA1 area of Fragile X mice; type: in vivo
Experimental: as §1
Hippocampal slices at 400 μm thickness were further immersed in the fixative (4% paraformaldehyde in PBS) for 30 min at room temperature and then sectioned at 35 μm thickness by using a vibratome. Sections were then processed for immunohistochemistry as described in Hongpaisan et al., J Neurosci., 2004, 24:10878-10887. Tissue sections were incubated free-floating with primary antibodies against spinophilin (polyclonal IgG; 1:100; Upstate/Millipore), synaptophysin (monoclonal IgG; 1:2,000; Chemicon/Millipore), and/or HuC/D (monoclonal IgG; 1:100; Molecular Probes) at room temperature overnight. For a polyclonal antibody, tissue sections were incubated with Alexa Fluor 568 goat anti-rabbit IgG (1:200; Molecular Probes) for 3 h at room temperature. For monoclonal antibodies, sections were treated with a biotinylated secondary antibody (1:20; Vector Laboratories) for 3 h at room temperature and then with streptavidin conjugated with Alexa Fluor 488 (1:100; Molecular Probes) for 3 h at room temperature. Sections were mounted with […] mounting medium with DAPI to counterstain nuclei (Vector Laboratories) and imaged with the confocal microscope (512 pixels×512 pixels).
All data were quantified by using the ImageJ program. The appearance of spinophilin and synaptophysin profiles in a 63-μm×63-μm image taken from the superficial part of the stratum radiatum were analyzed with the photographic negative after background subtraction. The total number of spinophilin and synaptophysin granules were then counted by using ImageJ. Synaptophysin intensity was defined in the whole area of a 63-μm×63-μm image. HuC/D immunostaining was quantified by measuring fluorescence intensity in the proximal dendrite portion of each individual CA1 pyramidal neuron. The naive control data were set at 100%, and all other experiment data were defined as the percentage of their control.
as §2

[2] = tested on: mushroom-shaped dendritic spines; conditions: rats; cited from earlier work
[3] = tested on: ischemia-induced deficits; conditions: postischemic/hypoxic treatment; cited from earlier work
Aβ(1-42) = conditions: transgenic mice with human AD genes; cited from earlier work
PKCε = target: T1, PKCε (Homo sapiens, UniProt Q02156); conditions: cited from earlier work
T1 sequence (Q02156 1-737): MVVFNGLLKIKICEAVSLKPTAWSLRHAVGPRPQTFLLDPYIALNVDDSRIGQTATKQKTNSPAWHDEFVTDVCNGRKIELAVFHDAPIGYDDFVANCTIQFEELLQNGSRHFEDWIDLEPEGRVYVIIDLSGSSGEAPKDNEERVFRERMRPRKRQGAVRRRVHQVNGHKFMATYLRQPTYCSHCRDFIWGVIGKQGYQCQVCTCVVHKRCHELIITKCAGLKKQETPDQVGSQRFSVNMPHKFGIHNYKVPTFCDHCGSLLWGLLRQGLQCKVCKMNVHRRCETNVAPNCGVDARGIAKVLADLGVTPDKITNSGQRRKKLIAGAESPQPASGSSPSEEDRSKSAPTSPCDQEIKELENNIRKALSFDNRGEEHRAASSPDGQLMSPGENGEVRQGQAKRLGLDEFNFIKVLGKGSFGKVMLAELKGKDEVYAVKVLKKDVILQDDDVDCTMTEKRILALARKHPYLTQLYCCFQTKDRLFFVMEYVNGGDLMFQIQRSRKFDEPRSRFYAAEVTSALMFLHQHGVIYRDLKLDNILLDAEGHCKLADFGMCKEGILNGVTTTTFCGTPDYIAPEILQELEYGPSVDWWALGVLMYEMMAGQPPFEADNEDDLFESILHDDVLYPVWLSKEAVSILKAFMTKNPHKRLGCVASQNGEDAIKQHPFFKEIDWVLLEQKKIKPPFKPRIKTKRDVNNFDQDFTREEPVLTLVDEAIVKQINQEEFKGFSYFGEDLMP

[4] = tested on: murine leukemias and solid tumors; conditions: cited from earlier work
PKC [5] = conditions: K562 cells; cited from earlier work
[6] = tested on: cyclin dependent kinase 2 (Cdk2); conditions: at 5 ng/ml; cited from earlier work
[7] = tested on: squamous cell carcinoma and melanoma; conditions: used topically; cited from earlier work
NCI 60 cell line screen = conditions: cited from earlier work
protein kinase C = conditions: specifically the (−)-enantiomer; read-out: EC50 (potency); cited from earlier work

## CCCCCCCC(=O)O[C@H]1/C(=C/C(=O)OC)C[C@H]2C[C@H](CO)OC(=O)C[C@H](O)C[C@@H]3CCC[C@H](C[C@@H]4CCO[C@H](/C=C/C(C)(C)[C@]1(O)O2)O4)O3 [Analog 1]
PKC [1]
  affinity for PKC (in words): high affinity for PKC

## CCC/C=C/C=C/C(=O)O[C@H]1/C(=C/C(=O)OC)C[C@H]2C[C@H]([C@@H](C)O)OC(=O)C[C@H](O)C[C@@H]3C[C@H](OC(C)=O)C(C)(C)[C@](O)(C[C@@H]4C/C(=C/C(=O)OC)C[C@H](/C=C/C(C)(C)[C@]1(O)O2)O4)O3 [Bryostatin 1, bryostatin-1]
FMR1 mice
  learning performance in water maze (FIG. 1): significantly improved the learning performance
synaptophysin
  presence of synaptophysin (FIG. 3): increased
Hippocampal CA1 neurons
  filopodia number per 100 μm of dendritic shaft (FIG. 6): improved the transformation of filopodia to dendritic spines
  mushroom-shaped and total dendritic spines per 100 μm of dendritic shaft (FIG. 5): prevented the loss
  number and density of dendritic mushroom spines (FIG. 4): restored the number and density of dendritic mushroom spines to wild-type levels
Hippocampal CA1 area; Fragile X transgenic mice
  postsynaptic membrane density, neurogranin; number of synapses (FIG. 8): can be restored
  presynaptic membrane density, GAP-43 (FIG. 7): restored presynaptic membrane density in Fragile X transgenic mice to wild type levels
  presynaptic vesicle concentration, synaptophysin fluorescence intensity (FIG. 9): significantly restored, and even enhanced
Hippocampal CA1 area; across experimental conditions
  number of presynaptic axonal boutons, synaptophysin grains (FIG. 9): No difference
[2]
  number of mushroom-shaped dendritic spines: memory-specific increase
[3]
  ischemia-induced deficits in synaptogenesis, neurotrophic activity, and spatial learning and memory: effectively rescued
Aβ(1-42)
  Aβ(1-42) levels in the brains: reduce

## CCCCCC1CC1CC1CC1CCCCCCCC(=O)O (centres unmarked) [DCP-LA, 2-[(2-pentylcyclopropyl)methyl]cyclopropaneoctanoic acid]
PKCε
  concentration of maximal effect on PKCε activation: 100 nM

## C=C(C)[C@]12C[C@@H](COC(=O)c3ccccc3)[C@@]34OC5(O[C@@H]1[C@@H]3C1O[C@]1(CO)[C@@H](O)[C@@]1(O)[C@H]4[C@@H](C(C)CCCCCC[C@@H]5O)C(C)[C@@H]1OC(=O)c1ccccc1)O2 (some centres unmarked) [Gnidimacrin]
[4]
  concentrations of potent antitumor activity: 0.1 to 1 nM
PKC [5]
  concentration at which it acts as a PKC activator: ~3 nM
[6]
  inhibition of Cdk2: 100%

## C/C=C(/C)C(=O)O[C@H]1C(C)=C[C@]23C(=O)[C@@H](C=C(CO)[C@@H](O)[C@]12O)[C@H]1[C@@H](C[C@H]3C)C1(C)C [Ingenol-3-angelate]
[7]
  antitumor activity: possesses antitumor activity

## CC1=CC[C@H](C)C(C)(C)[C@@H]1/C=C/C(C)=C/CC[C@@]1(CO)[C@H](CCCO)/C(=C(/C)C=O)CC[C@]1(C)O [Iripallidal]
NCI 60 cell line screen
  GI50 (concentration required to inhibit growth by 50%): micromolar to nanomolar range

## CCCCCCCCc1ccc2c3c(c[nH]c13)C[C@@H](CO)NC(=O)[C@H](C(C)C)N2C [octylindolactam V, Octylindolactam V]
Protein kinase C
  EC50: 29 nM
